Results on 1 compound are retold here after patent US11420922B2, “Hydroxylated tropolone inhibitors of nucleotidyl transferases in herpesvirus and Hepatitis B and uses therefor” (Saint Louis University, priority 2015, dated 2022).

A short description of data set [1]: Cytotoxicity reported with the HBV assay (Table 4). It is filed as cell-based. Conditions: human, hepatoma cells; read-out: CC50 (HBV assay table). In a few lines: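 Cells exposed 24 h to compounds at 0.78–100 μM in 1% DMSO, under the same conditions as the viral replication assays.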
A short description of data set [2]: Mouse liver microsome assay. Format: in vitro ADME. The settings on record: 1 μM in mouse liver microsomes. An outline of the steps: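 Mouse liver microsomes at 0.25 μM P450 final in 0.1 M potassium phosphate with 3.3 mM MgCl and 1 μM compound, prewarmed 5 min at 37 °C. Reaction started with NADPH (1.2 mM final); aliquots at 0, 5, 10, 20 and 30 min quenched in cold acetonitrile with EDTA or EGTA, analysed by LC/MS/MS.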

Another data set relates to HBV. The data set is described as follows: HBV replication assay in HepDES19 cells. It is filed as cell-based. The settings on record: Hepatitis B virus; HepDES19 cells; read-out: EC50 (HBV assay). In a few lines:
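HepDES19 cells induced by tetracycline withdrawal, then compound applied 48 h later in duplicate (1% DMSO final) and refreshed daily for two more days. After micrococcal nuclease digestion, capsid-associated HBV DNA purified and plus- and minus-strand DNA quantified by TaqMan PCR.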

For a further data set, the system named is HSV-1. Briefly: Anti-HSV-1 replication assay in Vero cells, titers by plaque assay. Format: cell-based, herpes simplex virus 1. The settings on record: Human alphaherpesvirus 1, Vero, 24 h. An outline of the steps:
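Vero monolayers infected with clinical HSV-1 or HSV-2 isolates at MOI 0.1 with compound present (50 and 5 μM final), 1 h at 37° C, then compound in DMEM for another 23 h. Yield titered by plaque assay on Vero cells; EC50 by nonlinear fit of serial dilutions starting at 50 μM, DMSO controls.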

Structures are written as SMILES.

As to `Cc1cc(O)c(=O)c(O)cc1C(=O)c1ccc(-c2ccccc2)cc1` [Compound 118], the CC50 at 24 h in data set [1] stood at 21 µM. For the same compound, in data set [2], the Non-P450 turn-over entry is given as “Potential”. Besides, in data set [2] (read-out: t ½), the half-life at 1 μM was determined as 34 min. In data set [2] (extraction ratio), the ER is 0.63. In data set [2] (mouse, liver microsomes), this compound displayed a CLint scaled at 1 μM of 154 mL/min/kg. Besides, the predicted hepatic clearance at 1 μM in data set [2] (mouse, liver microsomes, read-out: CL ′hep) was 57 mL/min/kg. For the same compound, the results for the EC50 in the data set with HBV and in the data set with HSV-1 (read-out: HSV-1 EC50) were 6 µM and 0.085 µM, respectively. Moreover, the log reduction at 5 µM in the data set with HSV-1 (read-out: HSV-1 Log suppression 5 μM) was determined as 5.14. The log reduction at 50 µM in the data set with HSV-1 (read-out: HSV-1 Log suppression 50 μM) was 6.27.
